Laboratory results reported in ChEMBL document CHEMBL1629655, “Affinity of Tomopenem (CS-023) for penicillin-binding proteins in Staphylococcus aureus, Escherichia coli, and Pseudomonas aeruginosa” (Antimicrob Agents Chemother, 2009).
≈ marks a conversion by molar mass, not a printed value. Calls of active or inactive are those of the source. The rule behind the calls is not given here.

Key:
Staphylococcus aureus [1] = assay: Antibacterial activity against Staphylococcus aureus ATCC 6538P by microdilution method; assay type: functional, organism-based
Escherichia coli [2] = assay: Antibacterial activity against Escherichia coli NIHJ by microdilution method; assay type: functional, organism-based
Pseudomonas aeruginosa [3] = assay: Antibacterial activity against Pseudomonas aeruginosa ATCC 15692 by microdilution method; assay type: functional, organism-based
[4] = Displacement of [14C]benzylpenicillin from PBP1 in Staphylococcus aureus ATCC 6538P
[5] = Displacement of [14C]benzylpenicillin from PBP2 Staphylococcus aureus ATCC 6538P
[6] = Displacement of [14C]benzylpenicillin from PBP3 in Staphylococcus aureus ATCC 6538P
[7] = Displacement of [14C]benzylpenicillin from PBP4 in Staphylococcus aureus ATCC 6538P
[8] = Displacement of [14C]benzylpenicillin from PBP1A in Escherichia coli NIHJ
[9] = Displacement of [14C]benzylpenicillin from PBP1B in Escherichia coli NIHJ
[10] = Displacement of [14C]benzylpenicillin from PBP2 in Escherichia coli NIHJ
[11] = Displacement of [14C]benzylpenicillin from PBP3 in Escherichia coli NIHJ
[12] = Displacement of [14C]benzylpenicillin from PBP4 in Escherichia coli NIHJ
[13] = Displacement of [14C]benzylpenicillin from PBP5 in Escherichia coli NIHJ
[14] = Displacement of [14C]benzylpenicillin from PBP6 Escherichia coli NIHJ
[15] = Displacement of [14C]benzylpenicillin from PBP1A in Pseudomonas aeruginosa ATCC 15692
[16] = Displacement of [14C]benzylpenicillin from PBP1B in Pseudomonas aeruginosa ATCC 15692
[17] = Displacement of [14C]benzylpenicillin from PBP2 in Pseudomonas aeruginosa ATCC 15692
[18] = Displacement of [14C]benzylpenicillin from PBP3 in Pseudomonas aeruginosa ATCC 15692
[19] = Displacement of [14C]benzylpenicillin from PBP4 in Pseudomonas aeruginosa ATCC 15692
[20] = Displacement of [14C]benzylpenicillin from PBP 5 in Pseudomonas aeruginosa ATCC 15692
[21] = Displacement of [14C]benzylpenicillin from PBP 6 in Pseudomonas aeruginosa ATCC 15692
Escherichia coli [22] = assay: Antibacterial activity against Escherichia coli NIHJ assessed as appearance of swollen cells at 1/8 times MIC by Scanning electron microscopy; assay type: functional, organism-based
Escherichia coli [23] = assay: Antibacterial activity against Escherichia coli NIHJ assessed as appearance of spherical and bulge cells at 8 times MIC by Scanning electron microscopy; assay type: functional, organism-based
Pseudomonas aeruginosa [24] = assay: Antibacterial activity against Pseudomonas aeruginosa ATCC 15692 assessed as filamentation of cells at 0.125 times MIC by scanning electron microscopy; assay type: functional, organism-based
Pseudomonas aeruginosa [25] = assay: Antibacterial activity against Pseudomonas aeruginosa ATCC 15692 assessed as appearance of bulge cells at MIC by Scanning electron microscopy; assay type: functional, organism-based
Staphylococcus aureus [26] = assay: Antibacterial activity against Staphylococcus aureus SRR2a selected at 2 times MIC of tomopenem by microdilution method; assay type: functional
Staphylococcus aureus [27] = assay: Ratio of MIC for Staphylococcus aureus SRR2a to MIC for Staphylococcus aureus ATCC 6538P; assay type: functional
Staphylococcus aureus [28] = assay: Antibacterial activity against Staphylococcus aureus SIR2a selected at 2 times MIC of imipenem by microdilution method; assay type: functional
Staphylococcus aureus [29] = assay: Ratio of MIC for Staphylococcus aureus SIR2a selected at 2 times MIC of imipenem to MIC for Staphylococcus aureus ATCC 6538P; assay type: functional
Staphylococcus aureus [30] = assay: Antibacterial activity against Staphylococcus aureus SMR2a selected at 2 times MIC of meropenem by microdilution method; assay type: functional
Staphylococcus aureus [31] = assay: Ratio of MIC for Staphylococcus aureus SMR2a to MIC for Staphylococcus aureus ATCC 6538P; assay type: functional
Staphylococcus aureus [32] = assay: Antibacterial activity against Staphylococcus aureus SMR4a […] MIC of meropenem by microdilution method; assay type: functional
Staphylococcus aureus [33] = assay: Ratio of MIC for Staphylococcus aureus SMR4a to MIC for Staphylococcus aureus ATCC 6538P; assay type: functional
Escherichia coli [34] = assay: Antibacterial activity against Escherichia coli ERR2a selected at 2 times MIC of tomopenem by microdilution method; assay type: functional
Escherichia coli [35] = assay: Ratio of MIC for Escherichia coli ERR2a selected to MIC for Escherichia coli NIHJ; assay type: functional
Escherichia coli [36] = assay: Antibacterial activity against Escherichia coli ERR2b selected at 2 times MIC of tomopenem by microdilution method; assay type: functional
Escherichia coli [37] = assay: Ratio of MIC for Escherichia coli ERR2b to MIC for Escherichia coli NIHJ; assay type: functional
Escherichia coli [38] = assay: Antibacterial activity against Escherichia coli ERR4a selected at 4 times MIC of tomopenem by microdilution method; assay type: functional
Escherichia coli [39] = assay: Ratio of MIC for Escherichia coli ERR4a to MIC for Escherichia coli NIHJ; assay type: functional
Escherichia coli [40] = assay: Antibacterial activity against Escherichia coli ERR8a selected at 8 times MIC of tomopenem by microdilution method; assay type: functional
Escherichia coli [41] = assay: Ratio of MIC for Escherichia coli ERR8a to MIC for Escherichia coli NIHJ; assay type: functional
Escherichia coli [42] = assay: Antibacterial activity against Escherichia coli EIR2a selected at 2 times MIC of imipenem by microdilution method; assay type: functional
Escherichia coli [43] = assay: Ratio of MIC for Escherichia coli EIR2a to MIC for Escherichia coli NIHJ; assay type: functional
Escherichia coli [44] = assay: Antibacterial activity against Escherichia coli EIR2b selected at 2 times MIC of imipenem by microdilution method; assay type: functional
Escherichia coli [45] = assay: Ratio of MIC for Escherichia coli EIR2b to MIC for Escherichia coli NIHJ; assay type: functional
Escherichia coli [46] = assay: Antibacterial activity against Escherichia coli EIR4a selected at 4 times MIC of imipenem by microdilution method; assay type: functional
Escherichia coli [47] = assay: Ratio of MIC for Escherichia coli EIR4a to MIC for Escherichia coli NIHJ; assay type: functional
Escherichia coli [48] = assay: Antibacterial activity against Escherichia coli EIR4b selected at 4 times MIC of imipenem by microdilution method; assay type: functional
Escherichia coli [49] = assay: Ratio of MIC for Escherichia coli EIR4b to MIC for Escherichia coli NIHJ; assay type: functional
Escherichia coli [50] = assay: Antibacterial activity against Escherichia coli EIR8a selected at 8 times MIC of imipenem by microdilution method; assay type: functional
Escherichia coli [51] = assay: Ratio of MIC for Escherichia coli EIR8a to MIC for Escherichia coli NIHJ; assay type: functional
Escherichia coli [52] = assay: Antibacterial activity against Escherichia coli EMR2a selected at 2 times MIC of meropenem by microdilution method; assay type: functional
Escherichia coli [53] = assay: Ratio of MIC for Escherichia coli EMR2a to MIC for Escherichia coli NIHJ; assay type: functional
Pseudomonas aeruginosa [54] = assay: Antibacterial activity against Pseudomonas aeruginosa PRR4a selected at 4 times MIC of tomopenem by microdilution method; assay type: functional
Pseudomonas aeruginosa [55] = assay: Ratio of MIC for Pseudomonas aeruginosa PRR4a to MIC for Pseudomonas aeruginosa ATCC 15692; assay type: functional
Pseudomonas aeruginosa [56] = assay: Antibacterial activity against Pseudomonas aeruginosa PIR2a selected at 2 times MIC of imipenem by microdilution method; assay type: functional
Pseudomonas aeruginosa [57] = assay: Ratio of MIC for Pseudomonas aeruginosa PIR2a to MIC for Pseudomonas aeruginosa ATCC 15692; assay type: functional
Pseudomonas aeruginosa [58] = assay: Antibacterial activity against Pseudomonas aeruginosa PMR2a selected at 2 times MIC of meropenem by microdilution method; assay type: functional
Pseudomonas aeruginosa [59] = assay: Ratio of MIC for Pseudomonas aeruginosa PMR2a to MIC for Pseudomonas aeruginosa ATCC 15692; assay type: functional
Staphylococcus aureus [60] = assay: Antibacterial activity against Staphylococcus aureus ATCC 6538P assessed as fold decrease in compound susceptibility after 10 passages relative to control; assay type: functional
Pseudomonas aeruginosa [61] = assay: Antibacterial activity against Pseudomonas aeruginosa ATCC 15692 assessed as fold decrease in compound susceptibility after 10 passages relative to control; assay type: functional
Staphylococcus aureus [62] = assay: Antibacterial activity against methicillin-sensitive Staphylococcus aureus by microdilution method; assay type: functional
Staphylococcus aureus [63] = assay: Antibacterial activity against methicillin-resistant Staphylococcus aureus by microdilution method; assay type: functional

C[C@@H](O)[C@H]1C(=O)N2C(C(=O)O)=C(S[C@H]3C[C@@H](C(=O)N4CC[C@H](NC(=O)CNC(=N)N)C4)N(C)C3)[C@H](C)[C@H]12 [TOMOPENEM]
IC50 (Staphylococcus aureus [1]): 0.06 µg/mL (≈ 0.112 µM) | MBC (Staphylococcus aureus [1]): 0.06 µg/mL (≈ 0.112 µM) | MIC (Staphylococcus aureus [1]): 0.06 µg/mL (≈ 0.112 µM) | MBC (Escherichia coli [2]): 0.03 µg/mL (≈ 0.0558 µM) | MIC (Escherichia coli [2]): 0.03 µg/mL (≈ 0.0558 µM) | MBC (Pseudomonas aeruginosa [3]): 0.5 µg/mL (≈ 0.93 µM) | MIC (Pseudomonas aeruginosa [3]): 0.5 µg/mL (≈ 0.93 µM) | IC50 [4]: 0.16 µg/mL (≈ 0.298 µM) | IC50 [5]: 0.21 µg/mL (≈ 0.391 µM) | IC50 [6]: > 32 µg/mL | IC50 [7]: 0.094 µg/mL (≈ 0.175 µM) | IC50 [8]: 1.2 µg/mL (≈ 2.23 µM) | IC50 [9]: 1.3 µg/mL (≈ 2.42 µM) | IC50 [10]: 0.017 µg/mL (≈ 0.0316 µM) | IC50 [11]: 0.71 µg/mL (≈ 1.32 µM) | IC50 [12]: > 32 µg/mL | IC50 [13]: 5.7 µg/mL (≈ 10.6 µM) | IC50 [14]: 31 µg/mL (≈ 57.7 µM) | IC50 [15]: 0.061 µg/mL (≈ 0.113 µM) | IC50 [16]: 0.053 µg/mL (≈ 0.0986 µM) | IC50 [17]: 0.011 µg/mL (≈ 0.0205 µM) | IC50 [18]: 0.011 µg/mL (≈ 0.0205 µM) | IC50 [19]: 3.5 ng/mL (≈ 0.00651 µM) | IC50 [20]: 5 µg/mL (≈ 9.3 µM) | IC50 [21]: 5 µg/mL (≈ 9.3 µM) | Activity (Escherichia coli [22]): Active | Activity (Escherichia coli [23]): Active | Activity (Pseudomonas aeruginosa [24]): Active | Activity (Pseudomonas aeruginosa [25]): Active | MIC (Staphylococcus aureus [26]): 0.25 µg/mL | Ratio MIC (Staphylococcus aureus [27]): 4 | MIC (Staphylococcus aureus [28]): 0.25 µg/mL | Ratio MIC (Staphylococcus aureus [29]): 4 | MIC (Staphylococcus aureus [30]): 0.25 µg/mL | Ratio MIC (Staphylococcus aureus [31]): 4 | MIC (Staphylococcus aureus [32]): 0.5 µg/mL | ratio (Staphylococcus aureus [33]): 8 | MIC (Escherichia coli [34]): 0.12 µg/mL | Ratio MIC (Escherichia coli [35]): 4 | MIC (Escherichia coli [36]): 0.12 µg/mL | Ratio MIC (Escherichia coli [37]): 4 | MIC (Escherichia coli [38]): 0.12 µg/mL | Ratio MIC (Escherichia coli [39]): 4 | MIC (Escherichia coli [40]): 0.12 µg/mL | Ratio MIC (Escherichia coli [41]): 4 | MIC (Escherichia coli [42]): 0.06 µg/mL | Ratio MIC (Escherichia coli [43]): 2 | MIC (Escherichia coli [44]): 0.06 µg/mL | Ratio MIC (Escherichia coli [45]): 2 | MIC (Escherichia coli [46]): 0.06 µg/mL | Ratio MIC (Escherichia coli [47]): 2 | MIC (Escherichia coli [48]): 0.06 µg/mL | Ratio MIC (Escherichia coli [49]): 2 | MIC (Escherichia coli [50]): 0.06 µg/mL | Ratio MIC (Escherichia coli [51]): 2 | MIC (Escherichia coli [52]): 0.06 µg/mL | Ratio MIC (Escherichia coli [53]): 2 | MIC (Pseudomonas aeruginosa [54]): 8 µg/mL | Ratio MIC (Pseudomonas aeruginosa [55]): 32 | MIC (Pseudomonas aeruginosa [56]): 2 µg/mL | Ratio MIC (Pseudomonas aeruginosa [57]): 8 | MIC (Pseudomonas aeruginosa [58]): 2 µg/mL | Ratio MIC (Pseudomonas aeruginosa [59]): 8 | fold change (FC) (Staphylococcus aureus [60]): 2 | fold change (FC) (Pseudomonas aeruginosa [61]): 8 | MIC50 (Staphylococcus aureus [62]): 0.12 µg/mL (≈ 0.223 µM) | MIC90 (Staphylococcus aureus [62]): 0.12 µg/mL (≈ 0.223 µM) | MIC50 (Staphylococcus aureus [63]): 4 µg/mL (≈ 7.44 µM) | MIC90 (Staphylococcus aureus [63]): 8 µg/mL (≈ 14.9 µM)
